Test results taken from US7273848B2, “Apolipoprotein A-I agonists and their use to treat dyslipidemic disorders” (priority 1997, dated 2007).
Non-standard residues stand in square brackets, D forms with d. Residues, ends and D or L forms follow the SMILES beside them. No end group written: not given here. 1Nal = N[C@@H](Cc1cccc2ccccc12)C(=O)O; Aib = CC(C)(N)C(=O)O

Tests used:
[1] = Circular dichroism helicity determination; assay type: physicochemical; settings: percent helicity; for He (%) TFE: 5 μM peptide, 90% vol TFE; for He (%) TFE / He (%) SUVs: 37° C.; for He (%) free: unbound peptide 5 μM in 5 mM phosphate buffer, pH 7.4, 37° C.; for He (%) SUVs: peptide-SUV complexes (20:1 EPC:Chol., Ri=30 and Ri=50); for He (%) mics: peptide-micelle complexes, Ri=100, 37° C.
Outline: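 Far-UV CD (190–260 nm) at 37° C on 5 μM peptide in 5 mM phosphate pH 7.4, free, with EPC:Chol 20:1 SUVs (Ri 30 or 50), lysophosphatidylcholine micelles (Ri 100) or 90% TFE. Spectra converted to molar ellipticity per residue; helicity from 222 nm ellipticity or CONTIN fitting to reference spectra, ±5%.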

[2] = biological target: T1, LCAT (purified from human plasma) (Homo sapiens, UniProt P04180); assay: LCAT activation assay; assay type: biochemical; settings: LCAT activation as compared with native human ApoA-I (= 100%), equivalent masses
T1 construct: from tissue; host or cells: human plasma
T1 sequence (P04180 25-440): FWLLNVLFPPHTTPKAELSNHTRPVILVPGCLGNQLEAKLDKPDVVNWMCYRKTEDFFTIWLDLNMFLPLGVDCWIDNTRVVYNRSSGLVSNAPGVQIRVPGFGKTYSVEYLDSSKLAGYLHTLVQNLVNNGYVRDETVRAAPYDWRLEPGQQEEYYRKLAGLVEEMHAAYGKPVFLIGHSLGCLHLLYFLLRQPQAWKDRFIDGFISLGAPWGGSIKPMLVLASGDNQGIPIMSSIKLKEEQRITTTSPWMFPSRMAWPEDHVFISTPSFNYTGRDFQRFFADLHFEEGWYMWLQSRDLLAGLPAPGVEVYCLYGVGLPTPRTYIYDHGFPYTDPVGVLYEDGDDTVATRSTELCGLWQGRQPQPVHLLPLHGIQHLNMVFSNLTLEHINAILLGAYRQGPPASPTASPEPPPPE
Outline: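 Substrate SUVs of EPC or POPC with 14C-cholesterol (20:1 molar ratio), in 10 mM Tris, 0.14 M NaCl, 1 mM EDTA, pH 7.4, were preincubated with peptide or equal mass of plasma ApoA-I. Reaction started with human plasma LCAT; activation was measured as cholesterol-to-ester conversion relative to ApoA-I (100%).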

Compound	He (%) TFE [1]	He (%) free [1]	He (%) SUVs [1]	He (%) mics [1]	ACTIVITY (%) LCAT [2]	ACTIVITY (%) LCAT ([2]; listed as 18AM4)
CC(C)C[C@H](NC(=O)[C@H](C)NC(=O)[C@H](CCC(=O)O)NC(=O)[C@H](Cc1cccc2ccccc12)NC(=O)[C@H](CC(C)C)NC(=O)[C@H](CCC(=O)O)NC(=O)[C@H](CC(N)=O)NC(=O)[C@H](CC(C)C)NC(=O)[C@H](CC(C)C)NC(=O)[C@H](CCC(=O)O)NC(=O)[C@H](CCCNC(=N)N)NC(=O)[C@H](Cc1ccccc1)NC(=O)[C@H](CC(C)C)NC(=O)[C@H](CC(=O)O)NC(=O)[C@H](CC(C)C)NC(=O)[C@@H](NC(=O)[C@@H]1CCCN1)C(C)C)C(=O)N[C@@H](CCCCN)C(=O)N[C@@H](CCC(N)=O)C(=O)N[C@@H](CCCCN)C(=O)N[C@@H](CC(C)C)C(=O)N[C@@H](CCCCN)C(=O)O [compound 27, PVLDLFRELLNELZEALKQKLK] (H-PVLDLFRELLNEL[1Nal]EALKQKLK-OH)	81%	72%	82%	92%	44%	–
PVLDLFRELLEELKQKLK [compound 210]	53%	20%	37%	63%	46%	–
CC(C)C[C@H](NC(=O)[C@H](C)NC(=O)[C@H](CCC(=O)O)NC(=O)[C@H](CC(C)C)NC(=O)C(C)(C)NC(=O)[C@H](CCC(=O)O)NC(=O)[C@H](CC(N)=O)NC(=O)[C@H](CC(C)C)NC(=O)[C@H](CC(C)C)NC(=O)[C@H](CCC(=O)O)NC(=O)[C@H](CC(C)C)NC(=O)[C@H](Cc1ccccc1)NC(=O)[C@H](CC(C)C)NC(=O)[C@H](CC(=O)O)NC(=O)[C@H](CC(C)C)NC(=O)[C@@H](NC(=O)[C@@H]1CCCN1)C(C)C)C(=O)N[C@@H](CCCCN)C(=O)N[C@@H](CCC(N)=O)C(=O)N[C@@H](CCCCN)C(=O)N[C@@H](CC(C)C)C(=O)N[C@@H](CCCCN)C(=O)O [compound 31, PVLDLFLELLNEXLEALKQKLK] (H-PVLDLFLELLNE[Aib]LEALKQKLK-OH)	90%	49%	–	98%	34%	–
CC(C)C[C@@H](NC(=O)[C@@H](C)NC(=O)[C@@H](CCC(=O)O)NC(=O)[C@@H](CC(C)C)NC(=O)C(C)(C)NC(=O)[C@@H](CCC(=O)O)NC(=O)[C@@H](CC(N)=O)NC(=O)[C@@H](CC(C)C)NC(=O)[C@@H](CCCCN)NC(=O)[C@@H](CCC(=O)O)NC(=O)[C@@H](CCCNC(=N)N)NC(=O)[C@@H](Cc1ccccc1)NC(=O)[C@@H](CCC(=O)O)NC(=O)[C@@H](CC(=O)O)NC(=O)[C@@H](CC(C)C)NC(=O)[C@H](NC(=O)[C@H]1CCCN1)C(C)C)C(=O)N[C@H](CCCCN)C(=O)N[C@H](CCC(N)=O)C(=O)N[C@H](CCCCN)C(=O)N[C@H](CC(C)C)C(=O)N[C@H](CCCCN)C(=O)O [compound 44, pvldefreklneXlealkqklk] (H-[dP][dV][dL][dD][dE][dF][dR][dE][dK][dL][dN][dE][Aib][dL][dE][dA][dL][dK][dQ][dK][dL][dK]-OH)	–	20%	–	86%	25%	–
DWLKAFYDKVAEKLKEAF [peptide 244, reference compound]	48%	9%	13%	40%	5%	–
CC(C)C[C@H](NC(=O)[C@H](C)NC(=O)[C@H](CCC(=O)O)NC(=O)[C@H](CC(C)C)NC(=O)C(C)(C)NC(=O)[C@H](CCC(=O)O)NC(=O)[C@H](CC(N)=O)NC(=O)[C@H](CC(C)C)NC(=O)[C@H](CC(C)C)NC(=O)[C@H](CCC(=O)O)NC(=O)[C@H](CCCNC(=N)N)NC(=O)[C@H](Cc1ccccc1)NC(=O)[C@H](CCC(=O)O)NC(=O)[C@H](CC(=O)O)NC(=O)[C@H](CC(C)C)NC(=O)[C@@H](NC(=O)[C@@H]1CCCN1)C(C)C)C(=O)N[C@@H](CCCCN)C(=O)N[C@@H](CCC(N)=O)C(=O)N[C@@H](CCCCN)C(=O)N[C@@H](CC(C)C)C(=O)N[C@@H](CCCCN)C(=O)O [compound 91, PVLDEFRELLNEXLEALKQKLK] (H-PVLDEFRELLNE[Aib]LEALKQKLK-OH)	100%	43%	–	100%	6%	–
PLDLFRELLNELLEALKQKLK [compound 85]	69%	58%	64%	61%	7%	–
LDDLLQKWAEAFNQLLKK [peptide 237, reference compound]	–	30%	45%	66%	11%	–
EWLEAFYKKVLEKLKELF [peptide 246, reference compound]	–	18%	47%	44%	4%	less than 4%
PVLDLFRELLNEWLEALKQKLK [compound 54]	78%	76%	84%	71%	19%	–
Ac-PVLDLFRELLEEWKQKLK-NH2 [compound 215]	68%	28%	53%	63%	38%	–
Ac-PVLELFRELLEELKQKLK-NH2 [compound 194]	93%	38%	–	93%	88%	–
PVLDLFRNLLEELLEALQKKLK [compound 66]	70%	64%	66%	82%	15%	–
PVLDLFRELLNELLQKLK [compound 209]	62%	54%	67%	71%	47%	–
PVLDLFREWLNELLEALKQKLK [compound 37]	73%	65%	76%	75%	29%	–
PVLDLFRELLEELLKALKKKLK [compound 39]	72%	66%	68%	69%	25%	–
PVLDLFRELLEELQKKLK [compound 220]	64%	27%	54%	64%	22%	–
CC(C)C[C@H](NC(=O)[C@H](CCCCN)NC(=O)[C@H](CCC(N)=O)NC(=O)[C@H](CCCCN)NC(=O)[C@H](Cc1cccc2ccccc12)NC(=O)[C@H](C)NC(=O)[C@H](CCC(=O)O)NC(=O)[C@H](CC(C)C)NC(=O)[C@H](CC(C)C)NC(=O)[C@H](CCC(=O)O)NC(=O)[C@H](CC(N)=O)NC(=O)[C@H](CC(C)C)NC(=O)[C@H](CC(C)C)NC(=O)[C@H](CCC(=O)O)NC(=O)[C@H](CCCNC(=N)N)NC(=O)[C@H](Cc1ccccc1)NC(=O)[C@H](CC(C)C)NC(=O)[C@H](CC(=O)O)NC(=O)[C@H](CC(C)C)NC(=O)[C@@H](NC(=O)[C@@H]1CCCN1)C(C)C)C(=O)N[C@@H](CCCCN)C(=O)O [peptide 10, PVLDLFRELLNELLEAZKQKLK] (H-PVLDLFRELLNELLEA[1Nal]KQKLK-OH)	71%	60%	70%	87%	79%	–
CC(C)C[C@H](NC(=O)[C@H](C)NC(=O)[C@H](CCC(=O)O)NC(=O)[C@H](CC(C)C)NC(=O)C(C)(C)NC(=O)[C@H](CCC(=O)O)NC(=O)[C@H](Cc1ccccc1)NC(=O)[C@H](CC(C)C)NC(=O)[C@H](CC(C)C)NC(=O)[C@H](CCC(=O)O)NC(=O)[C@H](CCCNC(=N)N)NC(=O)[C@H](Cc1ccccc1)NC(=O)[C@H](CCC(=O)O)NC(=O)[C@H](CC(=O)O)NC(=O)[C@H](CC(C)C)NC(=O)[C@@H](NC(=O)[C@@H]1CCCN1)C(C)C)C(=O)N[C@@H](CCCCN)C(=O)N[C@@H](CCC(N)=O)C(=O)N[C@@H](CCCCN)C(=O)N[C@@H](CC(C)C)C(=O)N[C@@H](CCCCN)C(=O)O [compound 76, PVLDEFRELLFEXLEALKQKLK] (H-PVLDEFRELLFE[Aib]LEALKQKLK-OH)	66%	41%	–	88%	9%	–
Ac-DWLKAFYDKVAEKLKEAF-NH2 [compound 240, reference compound]	57%	16%	59%	68%	10%	–
